The values below come from US11633392B2 (priority 2016, dated 2023).

pEC50: −log10 of the molar value. Where a name gives a salt, the structure may show the parent alone. Read-outs that look alike come from different tables or passages of the source. Marks after values point to notes of the source that are not given here.

In one test the target is T1, human opioid κ receptor (Homo sapiens, UniProt P41145).
T1 construct: host or cells: CHO cells
In words: Opioid receptor function test (Lance Ultra cAMP Kit), κ receptor. It counts as cell-based. The conditions noted are these: for pEC50: CHO cells expressing human κ receptor, cAMP, in the presence of forskolin; for κ receptor reaction rate at the maximum concentration (reference value, marked *): maximum reaction not reached, maximum concentration 10 μM, U-69593 = 100%. The protocol: (§1) Opioid Receptor Function Test
(§2) The functional activities of the compounds provided by the present invention on the μ, δ, and κ opioid receptors were investigated.
(§3) The test was performed by using Lance Ultra cAMP Kit (PerkinElmer) according to a method predetermined for the kit. In the evaluation of the agonistic activity, CHO cells expressing each of the human opioid receptors (δ, μ, and κ, accession numbers and catalog numbers are mentioned below) and 10 μM of each test compound were reacted for 30 minutes in an assay buffer (1× HBSS, […], pH 7.4, […] (isobutylmethylxanthine), 7.5% BSA) in the presence of forskolin. Subsequently, the cAMP detection reagent included in the kit was added, and 1 hour afterward, time-resolved fluorescence measurement was performed by using the EnVision plate reader (PerkinElmer). The test compounds and the control drugs (δ: SNC80, μ: DAMGO, κ: U-69593) were evaluated in a concentration range of 10^−12 to 10^−5 M, a dose-response curve of each test compound was obtained from the fluorescence values at 665 nm, and EC50 value and the Emax value were calculated. The Emax value was calculated as a ratio of the maximum reaction of the test compound to the maximum reaction of each control drug, which is taken as 100%.
(§4) • δ: Catalog No. CT4607, Accession No. NM_000911.2 • μ: Catalog No. CT4605, Accession No. NM_000914 • κ: Catalog No. CT4606, Accession No. NM_000912 (ChanTest Corporation)

In a further test the target is T2, human opioid μ receptor (Homo sapiens, UniProt P35372).
T2 construct: host or cells: CHO cells
In words: Opioid receptor function test (Lance Ultra cAMP Kit), μ receptor. Type of test: cell-based. The settings on record: for pEC50: read-out: μ receptor EC50 value. The protocol:
as §1, §2, §3, §4

For a further test, the target named is T3, human opioid δ receptor (Homo sapiens, UniProt P41143).
T3 construct: host or cells: CHO cells
The test is described as follows: Opioid receptor function test (Lance Ultra cAMP Kit), δ receptor. The conditions noted are these: for pEC50: CHO cells expressing human δ receptor, cAMP, in the presence of forskolin; for Emax / δ receptor Emax: ratio to maximum reaction of control drug SNC80 taken as 100%. It counts as cell-based. The protocol: as §1, §2, §3, §4

Test [1] has as its system olfactory bulbectomized (OBX) rat. In words: Hyperemotional reaction inhibition test using olfactory bulbectomized (OBX) rat. The settings on record: 10 mg/kg s.c. once a day, on the day 14 of the administration period. It counts as in vivo. The source says:
Hyperemotional Reaction Inhibition Test Using Olfactory Bulbectomized (OBX) Rat
According to the method of Saitoh et al. (Saitoh A, Yamada M, Yamada M, Takahashi K, Yamaguchi K, Murasawa H, Nakatani A, Tatsumi Y, Hirose N, and Kamei J: Antidepressant-like effects of the delta-opioid receptor agonist SNC80 ((+)-4-[(alphaR)-alpha-[(2S,5R)-2,5-dimethyl-4-(2-propenyl)-1-piperazinyl]-(3-methoxyphenyl)methyl]-N,N-diethylbenzamide) in an olfactory bulbectomized rat model, Brain Res., 2008, 1208:160-169), OBX rats were prepared by extracting the rat olfactory bulbs, and then breeding the rats in an isolated circumstance. Hyperemotional reaction was evaluated on the day 14 after the surgical operation and before the division into groups, and 2 hours after the administration on the days 1, 4, 7, 10, and 14 of the administration period according to the hyperemotional reaction evaluation criteria prepared by Gomita et al. (Gomita et al., Behavioral pharmacological and electroencephalographical studies of 7-chloro-1-methyl-5-phenyl-1H-1,5-benzodiazepine-2,4-(3H,5H:)-dione (Clobazam), Folia Pharmacologica Japonica, 82, 267 (1983)). The drug was subcutaneously administered once a day continuously over 14 days. As a positive control drug, fluoxetine, which is a selective serotonin reuptake inhibitor (SSRI), was used. As the solvent, a 1% cyclodextrin (CD) was used.

[2] abbreviates: ratio to maximum reaction of control drug U-69593 taken as 100%.
Where [3] appears, read: CHO cells expressing human μ receptor, cAMP, in the presence of forskolin.
Where [4] appears, read: ratio to maximum reaction of control drug DAMGO taken as 100%.

T1 sequence (P41145 whole entry): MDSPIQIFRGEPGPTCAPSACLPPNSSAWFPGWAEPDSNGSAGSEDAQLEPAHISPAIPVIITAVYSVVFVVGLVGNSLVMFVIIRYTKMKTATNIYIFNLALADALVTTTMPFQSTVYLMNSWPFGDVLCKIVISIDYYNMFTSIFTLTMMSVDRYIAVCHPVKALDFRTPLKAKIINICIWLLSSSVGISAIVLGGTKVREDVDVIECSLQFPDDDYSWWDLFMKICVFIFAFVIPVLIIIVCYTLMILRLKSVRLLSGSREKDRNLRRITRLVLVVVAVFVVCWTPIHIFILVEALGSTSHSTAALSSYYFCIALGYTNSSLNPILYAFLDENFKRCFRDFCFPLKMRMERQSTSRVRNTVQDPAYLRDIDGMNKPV
T2 sequence (P35372 whole entry): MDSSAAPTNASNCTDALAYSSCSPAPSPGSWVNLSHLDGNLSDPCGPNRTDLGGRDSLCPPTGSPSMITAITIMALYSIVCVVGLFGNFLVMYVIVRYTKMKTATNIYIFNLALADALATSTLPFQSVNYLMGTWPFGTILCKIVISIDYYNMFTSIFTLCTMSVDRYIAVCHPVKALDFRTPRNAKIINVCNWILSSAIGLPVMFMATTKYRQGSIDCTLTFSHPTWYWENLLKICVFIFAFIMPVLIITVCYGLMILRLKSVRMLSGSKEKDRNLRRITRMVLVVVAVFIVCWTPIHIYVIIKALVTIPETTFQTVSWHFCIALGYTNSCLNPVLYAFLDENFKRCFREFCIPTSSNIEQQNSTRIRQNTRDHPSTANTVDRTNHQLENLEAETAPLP
T3 sequence (P41143 whole entry): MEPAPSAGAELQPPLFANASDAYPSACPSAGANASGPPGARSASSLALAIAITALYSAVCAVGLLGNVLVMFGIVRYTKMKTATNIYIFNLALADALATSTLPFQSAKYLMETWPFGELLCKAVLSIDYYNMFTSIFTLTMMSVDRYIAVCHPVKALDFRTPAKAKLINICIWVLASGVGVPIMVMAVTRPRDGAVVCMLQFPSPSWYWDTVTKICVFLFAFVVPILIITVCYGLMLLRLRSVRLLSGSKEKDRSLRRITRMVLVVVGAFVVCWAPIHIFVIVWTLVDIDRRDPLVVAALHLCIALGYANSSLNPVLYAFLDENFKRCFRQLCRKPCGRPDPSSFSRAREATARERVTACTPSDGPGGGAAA

Regarding `O=C(c1ccc[n+]([O-])c1)N1C[C@H]2C[C@@]34CC[C@@H]1[C@@H]2[C@@]31CCN(CC2CC2)[C@@H]4Cc2ccc(O)cc21` [Example 4, 3-((1S,3aR,5aS,6R,11bR,11cS)-14-(cyclopropylmethyl)-10-hydroxy-2,3,3a,4,5,6,7,11c-octahydro-1H-6,11b-(epiminoethano)-1,5a-methanonaphtho[1,2-e]indole-3-carbonyl)pyridine 1-oxide], the pEC50 on human opioid κ receptor is below 8.00; at human opioid δ receptor, above 8.52. Moreover, the Emax at human opioid κ receptor (setting [2]) is 27%; at human opioid δ receptor, 86%. Besides, the “μ receptor reaction rate at the maximum concentration (reference value, marked *)” value on human opioid μ receptor (maximum reaction not reached, maximum concentration 10 μM, DAMGO = 100%) is reported as 5.5* %.

As for `O=C(c1ccc(=O)[nH]c1)N1C[C@H]2C[C@@]34CC[C@@H]1[C@@H]2[C@@]31CCN(CC2CC2)[C@@H]4Cc2ccc(O)cc21` [Example 5, 5-((1S,3aR,5aS,6R,11bR,11cS)-14-(cyclopropylmethyl)-10-hydroxy-2,3,3a,4,5,6,7,11c-octahydro-1H-6,11b-(epiminoethano)-1,5a-methanonaphtho[1,2-e]indole-3-carbonyl)pyridin-2(1H)-one], the values for the pEC50 at human opioid κ receptor, at human opioid μ receptor (setting [3]) and on human opioid δ receptor were above 9.00, below 9.00 and above 8.52, respectively. The Emax on human opioid κ receptor (setting [2]) turned out to be 20%; at human opioid μ receptor (setting [4]), 9.7%; at human opioid δ receptor, 81%.

Regarding `Cn1cccc(C(=O)N2C[C@H]3C[C@@]45CC[C@@H]2[C@@H]3[C@@]42CCN(CC3CC3)[C@@H]5Cc3ccc(O)cc32)c1=O` [Example 6, 3-((1S,3aR,5aS,6R,11bR,11cS)-14-(cyclopropylmethyl)-10-hydroxy-2,3,3a,4,5,6,7,11c-octahydro-1H-6,11b-(epiminoethano)-1,5a-methanonaphtho[1,2-e]indole-3-carbonyl)-1-methylpyridin-2(1H)-one], the “κ receptor reaction rate at the maximum concentration (reference value, marked *)” value (shortened to “κ receptor reaction rate”) at human opioid κ receptor is 3.2* %. For the same compound, the pEC50 on human opioid μ receptor (setting [3]) is below 8.00; on human opioid δ receptor it was above 8.52. The Emax came out at 7.7% at human opioid μ receptor (setting [4]) and 97% at human opioid δ receptor.

Regarding `Cc1ccc(C(=O)N2C[C@H]3C[C@@]45CC[C@@H]2[C@@H]3[C@@]42CCN(CC3CC3)[C@@H]5Cc3ccc(O)cc32)c(=O)[nH]1` [Example 8, 3-((1S,3aR,5aS,6R,11bR,11cS)-14-(cyclopropylmethyl)-10-hydroxy-2,3,3a,4,5,6,7,11c-octahydro-1H-6,11b-(epiminoethano)-1,5a-methanonaphtho[1,2-e]indole-3-carbonyl)-6-methylpyridin-2(1H)-one], the pEC50 at human opioid κ receptor is above 9.00; on human opioid μ receptor (setting [3]) it was below 9.00; at human opioid δ receptor it was above 8.52. Besides, the Emax was 21% at human opioid κ receptor (setting [2]), 8.6% on human opioid μ receptor (setting [4]) and 70% at human opioid δ receptor.

As to `O=C(c1cc[nH]c(=O)c1)N1C[C@H]2C[C@@]34CC[C@@H]1[C@@H]2[C@@]31CCN(CC2CC2)[C@@H]4Cc2ccc(O)cc21` [Example 11, 4-((1S,3aR,5aS,6R,11bR,11cS)-14-(cyclopropylmethyl)-10-hydroxy-2,3,3a,4,5,6,7,11c-octahydro-1H-6,11b-(epiminoethano)-1,5a-methanonaphtho[1,2-e]indole-3-carbonyl)pyridin-2(1H)-one], the “κ receptor reaction rate” value at human opioid κ receptor is on record as −2.5* %. Besides, the pEC50 on human opioid μ receptor (setting [3]) is below 9.00; at human opioid δ receptor, above 8.52. The Emax at human opioid μ receptor (setting [4]) turned out to be 11%; on human opioid δ receptor, 76%.

As for `O=C(c1cc(=O)cc[nH]1)N1C[C@H]2C[C@@]34CC[C@@H]1[C@@H]2[C@@]31CCN(CC2CC2)[C@@H]4Cc2ccc(O)cc21` [Example 14, 2-((1S,3aR,5aS,6R,11bR,11cS)-14-(cyclopropylmethyl)-10-hydroxy-2,3,3a,4,5,6,7,11c-octahydro-1H-6,11b-(epiminoethano)-1,5a-methanonaphtho[1,2-e]indole-3-carbonyl)pyridin-4(1H)-one], on human opioid κ receptor, the “κ receptor reaction rate” value was −6.7* %. Besides, the figures for the pEC50 at human opioid μ receptor (setting [3]) and at human opioid δ receptor were below 9.00 and above 8.52, respectively. In addition, the Emax at human opioid μ receptor (setting [4]) was 8.1%; on human opioid δ receptor, 95%.

Regarding `O=C(c1cc(=O)cco1)N1C[C@H]2C[C@@]34CC[C@@H]1[C@@H]2[C@@]31CCN(CC2CC2)[C@@H]4Cc2ccc(O)cc21` [Example 19, 2-((1S,3aR,5aS,6R,11bR,11cS)-14-(cyclopropylmethyl)-10-hydroxy-2,3,3a,4,5,6,7,11c-octahydro-1H-6,11b-(epiminoethano)-1,5a-methanonaphtho[1,2-e]indole-3-carbonyl)-4H-pyran-4-one], at human opioid κ receptor, the “κ receptor reaction rate” value is 0.6* %. For the same compound, the pEC50 is below 9.00 at human opioid μ receptor (setting [3]) and above 8.52 on human opioid δ receptor. In addition, the Emax at human opioid μ receptor (setting [4]) stood at 19%; on human opioid δ receptor, 91%.

In the case of `CCn1cc(C(=O)N2C[C@H]3C[C@@]45CC[C@@H]2[C@@H]3[C@@]42CCN(CC3CC3)[C@@H]5Cc3ccc(O)cc32)ccc1=O` [Example 28, 5-((1S,3aR,5aS,6R,11bR,11cS)-14-(cyclopropylmethyl)-10-hydroxy-2,3,3a,4,5,6,7,11c-octahydro-1H-6,11b-(epiminoethano)-1,5a-methanonaphtho[1,2-e]indole-3-carbonyl)-1-ethylpyridin-2(1H)-one], the pEC50 on human opioid κ receptor was above 9.00; at human opioid μ receptor (setting [3]), below 9.00; on human opioid δ receptor, above 8.52. For the same compound, the Emax on human opioid κ receptor (setting [2]) amounted to 18%; on human opioid μ receptor (setting [4]), 16%; at human opioid δ receptor, 92%.

On to `Cn1cccc(C(=O)N2C[C@H]3C[C@@]45CC[C@@H]2[C@@H]3[C@@]42CCN(CC3CC3)[C@@H]5Cc3ccc(O)cc32)c1=O` [Example 31, 3-((1S,3aR,5aS,6R,11bR,11cS)-14-(cyclopropylmethyl)-10-hydroxy-2,3,3a,4,5,6,7,11c-octahydro-1H-6,11b-(epiminoethano)-1,5a-methanonaphtho[1,2-e]indole-3-carbonyl)-1-methylpyridin-2(1H)-one hydrochloride], for which, on human opioid μ receptor, the “μ receptor Emax” value is 7.7% and the pEC50 is below 8.00. The “δ receptor Emax” value at human opioid δ receptor is 97%.

For `Cc1ccc(C(=O)N2C[C@H]3C[C@@]45CC[C@@H]2[C@@H]3[C@@]42CCN(CC3CC3)[C@@H]5Cc3ccc(O)cc32)c(=O)[nH]1` [Example 32, 3-((1S,3aR,5aS,6R,11bR,11cS)-14-(cyclopropylmethyl)-10-hydroxy-2,3,3a,4,5,6,7,11c-octahydro-1H-6,11b-(epiminoethano)-1,5a-methanonaphtho[1,2-e]indole-3-carbonyl)-6-methylpyridin-2(1H)-one hydrochloride], the “κ receptor Emax” value at human opioid κ receptor (setting [2]) is 21%. On human opioid μ receptor (setting [4]), the “μ receptor Emax” value is on record as 8.6%. For the same compound, the “δ receptor Emax” value on human opioid δ receptor came to 70%.

Regarding `CNCCC(Oc1ccc(C(F)(F)F)cc1)c1ccccc1` (centres unmarked) [fluoxetine, reference compound], the “hyperemotional reactions of the OBX rats compared with the solvent administration group” value in test [1] is “significantly reduced”.

By pEC50 is commonly meant the negative decadic logarithm of the EC50, by convention in mol/L. A word on the Emax: it is the greatest response seen or fitted, relative to the assay's reference.
